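Each compound was tested at five concentrations against cells in 96-well plates for 48 hours. TGI: concentration producing complete growth inhibition.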
Tests used:
Test in all cases: growth of human tumour cells (NCI), 48 h
[1] = tested on: A498 renal
[2] = tested on: TK-10 renal
[3] = tested on: HT29 colon
[4] = tested on: BT-549 breast
[5] = tested on: SR leukemia
[6] = tested on: UACC-62 melanoma
[7] = tested on: NCI/ADR-RES ovarian
[8] = tested on: MDA-MB-231 breast
[9] = tested on: IGROV1 ovarian
[10] = tested on: K-562 leukemia
[11] = tested on: MDA-MB-435
[12] = tested on: LOX IMVI melanoma

SMILES | TGI [1] [µM] | TGI [2] [µM] | TGI [3] [µM] | TGI [4] [µM] | TGI [5] [µM] | TGI [6] [µM] | TGI [7] [µM] | TGI [8] [µM] | TGI [9] [µM] | TGI [10] [µM] | TGI [11] [µM] | TGI [12] [µM]
Cc1cc(N(CCC#N)CCC#N)ccc1/C(N=Nc1ccccc1)=N\NC(=O)c1ccccc1 | 93.7 | 41 | 35.5 | 77.4 | 71.6 | 45.5 | 75.5 | > 100 | > 100 | 44.7 | > 100 | –
O=Cc1[nH]c(=O)[nH]c(=O)c1CCl | > 100 | > 100 | > 100 | > 100 | 57.7 | > 100 | > 100 | > 100 | > 100 | > 100 | > 100 | > 81.7
CC(=O)O[C@H]1[C@H](OC(C)=O)[C@@H](CN=[N+]=[N-])OCO[C@@H]1CN=[N+]=[N-] | > 100 | > 100 | > 100 | > 100 | > 100 | > 100 | > 100 | > 100 | > 100 | > 100 | > 100 | > 100
BrCCC[P+](c1ccccc1)(c1ccccc1)c1ccccc1 | > 100 | > 100 | > 100 | > 100 | > 100 | 64.2 | > 100 | 86 | > 66.9 | > 100 | > 51.8 | 16.8
COc1cc(C=Nc2ccc(S(N)(=O)=O)cc2)cc(OC)c1 | > 50 | > 50 | > 50 | > 50 | > 50 | > 50 | > 50 | > 50 | > 50 | > 50 | 49.3 | > 50
O=C(Nc1nncs1)NS(=O)(=O)n1cnc2ccccc21 | > 100 | > 100 | > 100 | > 100 | > 100 | > 100 | > 100 | > 100 | > 100 | – | > 100 | –
CC(=O)OCC1OC(n2c3c(cc(C#N)c2=S)CCCCCC3)C(OC(C)=O)C(OC(C)=O)C1OC(C)=O (stereo not given) | > 100 | > 100 | > 100 | > 100 | > 100 | > 100 | > 100 | > 100 | > 100 | > 100 | > 100 | 49.8
CCOC(=O)/C=C(\C(=O)OCC)n1cnc2c(N)ncnc21 | 17.7 | 17.3 | 23.1 | 27.3 | 4.25 | 23.8 | 37 | 21.8 | 26.7 | 5.52 | 24.7 | 11.9
Cc1nn(-c2ccccc2)c2c1C(c1cc3ccccc3nc1Cl)NC(=S)N2 (stereo not given) | > 100 | > 100 | > 100 | > 100 | > 100 | > 100 | > 100 | > 100 | 37.6 | > 100 | > 100 | 56.6
O=c1c2ccccc2c2c1c1c3ccccc3c(=O)c1c1c3ccccc3c(=O)c21 | > 100 | > 100 | > 100 | > 100 | > 100 | > 100 | > 100 | > 100 | > 100 | > 100 | > 100 | > 100
c1ccc2c(c1)CCN1CCc3c([nH]c4ccccc34)C21 (stereo not given) | 54.5 | > 100 | 99.3 | > 100 | 56.3 | > 100 | 56.9 | > 100 | > 100 | 43.3 | 75.5 | 53.1
CC(=O)O[C@H]1[C@@H](OC2CCCC2(c2ccccc2)c2ccccc2)O[N+]([O-])=C[C@@]12COCc1cc3c(cc12)OCO3 (stereo not given in full) | 7.67 | > 24.7 | 9.11 | > 86.2 | > 23.6 | 25.9 | 14.9 | > 43.2 | 22.2 | > 23.7 | 14.3 | > 26.6
O=c1oc2cc(O)ccc2cc1-c1nc2ccccc2s1 | 51.1 | > 100 | 85.6 | 51 | > 100 | 41.7 | 44.7 | 53.6 | > 100 | > 100 | 90.1 | 90.2
O=C(O)CSc1nnc(CCCCCCCCc2nnc(SCC(=O)O)o2)o1 | > 100 | > 100 | > 100 | > 100 | > 100 | > 100 | > 100 | > 100 | > 100 | > 100 | > 100 | > 100
COc1ccc(N2CCN(Cc3c(C(C)=O)[n+](=O)c4ccccc4n3[O-])CC2)cc1 | > 100 | 67.5 | > 100 | 53.3 | > 100 | > 100 | > 100 | > 100 | > 100 | > 100 | > 100 | > 100
NC(N)=NS(=O)(=O)c1ccc(Nc2c3ccccc3nc3c(C(=O)NC(CO)(CO)CO)cccc23)cc1 | 72.6 | 94.5 | 61.1 | 36.7 | > 100 | 94.6 | > 100 | > 100 | > 100 | > 100 | > 100 | > 100
COc1ccc(N=Nc2c(C)c(C#N)c(=S)n(C3OC(COC(C)=O)C(OC(C)=O)C(OC(C)=O)C3OC(C)=O)c2-c2ccccc2)cc1 (stereo not given) | 7.09 | 34.2 | > 100 | 17.6 | > 100 | – | 24.4 | 22.3 | – | > 100 | 27.4 | 17.9
CC(=O)Nc1ccc(S(=O)(=O)[N-]C2C(=O)c3ccccc3C(=O)C2[n+]2ccccc2)cc1 (stereo not given) | – | > 100 | > 100 | 13.4 | 42.1 | 28.9 | 38.8 | > 100 | 30 | > 100 | 14.9 | > 100

Source: PubChem BioAssay (NCI)
